The values below come from patent publication US20170354638A1, “BIXA ORELLANA COMPOSITION FOR THE TREATMENT MACULAR DEGENERATION” (BIOPHYTIS, priority 2011, published 2017).

The subject of this test is primary cultures of adult porcine RPE cells. The experiment in a line: RPE cellular model of phototoxicity induced by A2E treatment followed by blue radiation illumination; cell survival. The format is cell-based. The conditions noted are these: for protective effect (cell survival vs control without A2E): concentrations of 0.1 and 1 μM, 48 h treatment, last 24 h with A2E, then blue light; for protection, percentage of survival compared to the control without A2E: 10 μM. Here is the method: Given the very probable role of this mechanism in the development of AMD, the inventors used an in vitro cellular model of induced phototoxicity by the association of a treatment with A2E and illumination by blue light on RPE primary cell cultures wherein cell survival was measured. This model was developed by the Institute of Vision and allows for screening molecules aimed to discover new candidates for the treatment of dry AMD.
To test the photoprotective effect of the test substances, the inventors used a cellular model of induced phototoxicity by treatment with A2E followed by illumination with blue radiation. This model was produced from primary cultures of adult porcine RPE cells. Cell survival was determined by the ratio between the number of living cells and the total number of cells (alive+dead, respectively quantified using specific staining). Image acquisition was performed using a fluorescence microscope controlled by Metamorph software and quantifications were made by processing images acquired by a program dedicated quantification. The experiments were performed in 96-well microplates in quadruplicate and the experiment was repeated at least four times. Cells were treated for 48 hours with these compounds, the last 24 hours in the presence of A2E before induction of phototoxicity. Three concentrations (0.1, 1 and 10 μM) were tested for each compound. Some compounds were further tested at 20 μM to achieve a range of concentrations.

Turning to `CC(/C=C/C=C(\C)C(=O)O)=C\C=C\C=C(C)\C=C\C=C(/C)C(=O)O` [Crocetin], the “protective effect (cell survival vs control without A2E)” value is listed as “did not show a protective effect”.
Consider `Oc1cc(O)c2cc(O)c(-c3ccc(O)c(O)c3)[o+]c2c1` [Cyanidin], for which the “protection, percentage of survival compared to the control without A2E” value was around 87%.
As for `O=c1oc2c(O)c(O)cc3c(=O)oc4c(O)c(O)cc1c4c23` [Ellagic acid], the “protection, percentage of survival compared to the control without A2E” value is around 68% and the “protective effect (cell survival vs control without A2E)” value is given as “did not show a protective effect”. In addition, the “protection against phototoxicity (in words)” value (20 μM) is recorded as “protection similar to that measured at 10 μM”.
As for `CC1=C[C@H](O)CC(C)(C)[C@H]1/C=C/C(C)=C/C=C/C(C)=C/C=C/C=C(C)/C=C/C=C(C)/C=C/C1=C(C)C[C@@H](O)CC1(C)C` [Lutein, reference compound], the “protective effect (cell survival vs control without A2E)” value is “did not show a protective effect”.
On the same count and under the same terms, the result for `O=C1C[C@@H](c2ccc(O)cc2)Oc2cc(O)cc(O)c21` [Naringenin] reads “did not show a protective effect”; that for `O=c1cc(-c2ccc(O)c(O)c2)oc2c([C@@H]3O[C@H](CO)[C@@H](O)[C@H](O)[C@H]3O)c(O)cc(O)c12` [Orientin], “did not show a protective effect”; that for `Oc1ccc(C=Cc2cc(O)cc(O)c2)cc1` [Resveratrol, reference compound], “did not show a protective effect”.
Consider `CC1=C(/C=C/C(C)=C/C=C/C(C)=C/C=C/C=C(C)/C=C/C=C(C)/C=C/C2=C(C)C[C@@H](O)CC2(C)C)C(C)(C)C[C@H](O)C1` [Zeaxanthin, reference compound], for which the “protective effect (cell survival vs control without A2E)” value was “did not show a protective effect”.
